Data taken from patent publication US20220016273A1, “COMPOSITION FOR DIAGNOSIS OF FUNGAL INFECTION” (CNCURE BIOTECH INC., priority 2019, published 2022).

Columns and labels:
C. albicans = assay: In vitro uptake of [^18F]FDS by cultured strains (gamma counter); assay type: cell-based, Candida albicans; conditions: 1×10^8 per mL, 0.74 MBq, incubated 2 hours (FIG. 3)
Procedure: (§1) The present inventors cultured the fungus using the following method. Specifically, Aspergillus fumigatus was smeared on potato dextrose agar medium (or YAG, yeast extract agar medium), and cultured at 30° C. for 2-3 days. Thereafter, the culture plate was washed with sterile physiological saline and Tween 20 [10 μl (1 drop)] and filtered with sterile gauze (or 40 μm-pore insertion filter). Then, the pellet was recovered using a centrifuge and the number of fungi was confirmed to prepare a bacterial solution of 1.5×10^9 conida/mL. Rhizopus arrhizus isolated from the patient was also cultured in the same way as A. fumigatus, prepared a fungal solution, and used for in vitro experiments. For Candida albicans, a strain isolated from the patient was also used, and cultured in SDA medium for 2-3 days. After recovering from the medium, a fungal solution was prepared.
(§2) The present inventors performed in vitro experiments on the strain cultured in Example 2 above. Specifically, each strain was prepared to be 1×10^8 per 1 mL of medium, and 1 mL was dispensed into tubes. The experiments were performed three times according to the experimental period, and 0.74 MBq of [^18F]FDS synthesized as described above was injected and incubated for 2 hours in the incubator. […] After washing twice with phosphate buffer, the filtered fungi were collected and the intake was measured with a gamma counter. […]

A. fumigatus = assay: as above; assay type: cell-based, Aspergillus fumigatus; conditions: 1×10^8 per mL, 0.74 MBq, incubated 2 hours (FIG. 3)
Procedure: as §1, §2

Rhizopus sp. = assay: as above; assay type: cell-based, Rhizopus arrhizus; conditions: 1×10^8 per mL, 0.74 MBq, incubated 2 hours (FIG. 3)
Procedure: as §1, §2

[1] = system: gram-negative bacterial strains; assay: In vitro uptake of [^18F]FDS by bacterial strains; assay type: cell-based; conditions: gram-negative bacterial strains (FIG. 3)
Procedure: (§3) The present inventors performed in vitro experiments on the strain cultured in Example 2 above. Specifically, each strain was prepared to be 1×10^8 per 1 mL of medium, and 1 mL was dispensed into tubes. The experiments were performed three times according to the experimental period, and 0.74 MBq of [^18F]FDS synthesized as described above was injected and incubated for 2 hours in the incubator. After 2 hours, each strain was divided into a filterable 1.5 mL centrifuge tube, and the fungi and medium were separated through centrifugation. After washing twice with phosphate buffer, the filtered fungi were collected and the intake was measured with a gamma counter.
(§4) The present inventors confirmed the uptake ability of [^18F]FDS of the present invention using fungal strain cultivation.

[2] = system: gram-positive bacterial strains; assay: In vitro uptake of [^18F]FDS by bacterial strains; assay type: cell-based; conditions: gram-positive bacterial strains (FIG. 3)
Procedure: as §3, §4

fungi = assay: In vitro uptake of [^18F]FDS, fungi compared with bacteria; assay type: cell-based; conditions: in vitro experiment; fungi vs bacteria
Procedure: as §3

[3] = system: A. fumigatus lung infection; assay: microPET imaging in A. fumigatus lung infection small animal model; assay type: in vivo; conditions: Balb/c mice infected with A. fumigatus in the lung; 7.4 MBq tail vein; image 2 hours after injection (FIG. 4)
Procedure: (§5) The present inventors created a lung infection model by the following method. First, after preparing Balb/c mice 8 weeks old (female), 150 mg/kg 100 μl of cyclophosphamide was intraperitoneally injected 4 days before infection. After 3 days, 100 μl of 250 mg/kg of cortisone acetate was injected into the subcutaneous fat layer, and the mice were anesthetized after 24 hours. And then the lung infection model mice were prepared by the injection of 70 μl of A. fumigatus fungal solution (about 1.5×10^7 conidia) through the nasal cavity.
(§6) The present inventors acquired microPET images 2 hours after injecting the [^18F]FDS (7.4 MBq) according to the present invention into the tail vein of the infected mice, and the acquired images were reconstructed by using the 3D-ordered subset expectation maximization (3D-OSEM) method.
The present inventors confirmed the fungal selective uptake ability of [^18F]FDS of the present invention using small animal infection models. To this end, [^18F]FDS was administered intravenously to Balb/c mice infected with A. fumigatus in the lung prepared in Example 4, and microPET images were acquired and analyzed.

[4] = system: A. fumigatus muscle infection; assay: microPET imaging in A. fumigatus muscle infection small animal model; assay type: in vivo; conditions: Balb/c mice, A. fumigatus forelimb muscle infection; 7.4 MBq tail vein; image 2 hours after injection; compared to the control group (FIGS. 5-7)
Procedure: as §5, with “produced” for “created”, “muscle” for “lung”, “100” for “70”, “1.5×10^8” for “1.5×10^7”, “into” for “through”, “forelimb muscle of the mice.” for “nasal cavity.”
as §6

For `OC[C@@H](O)[C@@H](O)[C@H](O)[C@@H]([18F])CO` [[^18F]FDS, 2-deoxy-2-[^18F]fluorosorbitol], the “uptake of [^18F]FDS” value (C. albicans) was “very high selective uptake”, the “uptake of [^18F]FDS” value (A. fumigatus) was “very high selective uptake” and the “uptake of [^18F]FDS” value (Rhizopus sp.) was “very high selective uptake”. The “uptake of [^18F]FDS” value [1] was “showed uptake”, the “uptake of [^18F]FDS” value [2] was “did not show no uptake” and the “degree of uptake of [^18F]FDS by fungi relative to bacterial uptake” value (fungi) was “more than 10 times”. The “uptake of [^18F]FDS in the lungs (microPET)” value [3] was “very high selective uptake” and the “uptake of [^18F]FDS at the muscle infection site (microPET)” value [4] was “very high selective uptake”.
